# Experimental data as given in US10131652B2, “Pyrimidinyloxy benzene derivatives as herbicides” (E. I. DU PONT DE NEMOURS AND COMPANY, priority 2014, dated 2018).
# How the values were obtained:
# Type in all cases: in vivo
# [1] = tested on: Italian ryegrass (Lolium multiflorum); test: Test B pre-/postemergence plant response
# How it was run: (§1)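 Ratings reflect visual injury versus untreated controls, from 0 for no effect to 100 for complete control, assessed roughly 10 days after treatment. Formulation: non-phytotoxic solvent mix with surfactant; pre- and postemergence sprays on plants grown in loam soil and sand.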
# kochia (Kochia scoparia) = test: Test B pre-/postemergence plant response
# How it was run: as §1
# [2] = tested on: ragweed (common ragweed, Ambrosia elatior); test: Test B pre-/postemergence plant response
# How it was run: as §1
# [3] = tested on: Italian ryegrass (Lolium multiflorum); test: Test D pre-/postemergence plant response
# How it was run: (§2)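 Seeds sown in loam–sand blend got preemergence sprays of test chemicals in a non-phytotoxic solvent with surfactant; postemergence sprays went on plants at 1- to 4-leaf stage (2 to 18 cm) in peat/vermiculite medium. After 13 to 15 days in greenhouse, visual injury versus controls scored 0 (no effect) to 100 (complete control).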
# [4] = tested on: barnyardgrass (Echinochloa crus-galli); test: Test D pre-/postemergence plant response
# How it was run: as §2
# [5] = tested on: blackgrass (Alopecurus myosuroides); test: Test D pre-/postemergence plant response
# How it was run: as §2
# corn (Zea mays) = test: Test D pre-/postemergence plant response
# How it was run: as §2
# [6] = tested on: galium (catchweed bedstraw, Galium aparine); test: Test D pre-/postemergence plant response
# How it was run: as §2
# [7] = tested on: giant foxtail (Setaria faberii); test: Test D pre-/postemergence plant response
# How it was run: as §2
# [8] = tested on: large (Lg) crabgrass (Digitaria sanguinalis); test: Test D pre-/postemergence plant response
# How it was run: as §2
# [9] = tested on: oilseed rape (Brassica napus); test: Test D pre-/postemergence plant response
# How it was run: as §2
# [10] = tested on: pigweed (Amaranthus retroflexus); test: Test D pre-/postemergence plant response
# How it was run: as §2
# [11] = tested on: ragweed (common ragweed, Ambrosia elatior); test: Test D pre-/postemergence plant response
# How it was run: as §2
# [12] = tested on: yellow nutsedge (Cyperus esculentus); test: Test D pre-/postemergence plant response
# How it was run: as §2
# [13] = 125 g ai/ha, postemergence, 0 to 100 scale, 0 no effect, 100 complete control
# [14] = Postemergence, 500 g ai/ha, 0 to 100 scale (0 no effect, 100 complete control)
# [15] = Preemergence, 125 g ai/ha, 0 to 100 scale where 0 is no effect and 100 is complete control
# [16] = Preemergence, 500 g ai/ha, 0 to 100 scale where 0 is no effect and 100 is complete control
# [17] = Postemergence, 16 g ai/ha, scale 0 to 100 (0 no effect, 100 complete control)
# [18] = Postemergence, 31 g ai/ha, scale 0 to 100 (0 no effect, 100 complete control)
# [19] = Postemergence, 62 g ai/ha, scale 0 to 100, 0 no effect, 100 complete control
# [20] = Postemergence, 125 g ai/ha, scale 0 to 100, 0 no effect, 100 complete control
# [21] = Preemergence, 16 g ai/ha, scale 0 to 100 (0 no effect, 100 complete control)
# [22] = Preemergence, 31 g ai/ha, scale 0 to 100 (0 no effect, 100 complete control)
# [23] = Preemergence, 62 g ai/ha, scale 0 to 100 (0 no effect, 100 complete control)
structure (smiles),measurement,setting,value
Cc1cc(-c2ccccc2Oc2ncc(Cl)cn2)no1 [Compound 60],"Plant response rating, Ryegrass, Italian",[1]; [13],0
same,"Plant response rating, Ryegrass, Italian",[1]; [14],80
same,"Plant response rating, Ryegrass, Italian",[1]; [15],0
same,"Plant response rating, Ryegrass, Italian",[1]; [16],30
same,"Plant response rating, Kochia",kochia (Kochia scoparia); [13],90
same,"Plant response rating, Kochia",kochia (Kochia scoparia); [14],100
same,"Plant response rating, Kochia",kochia (Kochia scoparia); [15],90
same,"Plant response rating, Kochia",kochia (Kochia scoparia); [16],100
same,"Plant response rating, Ragweed",[2]; [13],60
same,"Plant response rating, Ragweed",[2]; [14],90
same,"Plant response rating, Ragweed",[2]; [15],20
same,"Plant response rating, Ragweed",[2]; [16],50
same,"Ryegrass, Italian plant response rating",[3]; [17],0
same,"Ryegrass, Italian plant response rating",[3]; [18],0
same,"Plant response rating, Ryegrass, Italian",[3]; [19],0
same,"Plant response rating, Ryegrass, Italian",[3]; [20],0
same,"Plant response rating (scale 0 to 100), Ryegrass, Italian","[3]; Preemergence, 125 g ai/ha",30
same,"Plant response rating, Ryegrass, Italian",[3]; [21],0
same,"Plant response rating, Ryegrass, Italian",[3]; [22],0
same,"Plant response rating, Ryegrass, Italian",[3]; [23],0
same,Barnyardgrass plant response rating,[4]; [17],0
same,Barnyardgrass plant response rating,[4]; [18],0
same,"Plant response rating, Barnyardgrass",[4]; [19],10
same,"Plant response rating, Barnyardgrass",[4]; [20],10
same,"Plant response rating (scale 0 to 100), Barnyardgrass","[4]; Preemergence, 62 g ai/ha",30
same,"Plant response rating (scale 0 to 100), Barnyardgrass","[4]; Preemergence, 125 g ai/ha",75
same,"Plant response rating, Barnyardgrass",[4]; [21],0
same,"Plant response rating, Barnyardgrass",[4]; [22],5
same,Blackgrass plant response rating,[5]; [17],0
same,Blackgrass plant response rating,[5]; [18],0
same,"Plant response rating, Blackgrass",[5]; [19],5
same,"Plant response rating, Blackgrass",[5]; [20],20
same,"Plant response rating (scale 0 to 100), Blackgrass","[5]; Preemergence, 125 g ai/ha",70
same,"Plant response rating, Blackgrass",[5]; [21],0
same,"Plant response rating, Blackgrass",[5]; [22],5
same,"Plant response rating, Blackgrass",[5]; [23],10
same,Corn plant response rating,corn (Zea mays); [17],0
same,Corn plant response rating,corn (Zea mays); [18],0
same,"Plant response rating, Corn",corn (Zea mays); [19],5
same,"Plant response rating, Corn",corn (Zea mays); [20],5
same,"Plant response rating (scale 0 to 100), Corn","corn (Zea mays); Preemergence, 125 g ai/ha",5
same,"Plant response rating, Corn",corn (Zea mays); [21],5
same,"Plant response rating, Corn",corn (Zea mays); [22],0
same,"Plant response rating, Corn",corn (Zea mays); [23],0
same,Galium plant response rating,[6]; [17],30
same,Galium plant response rating,[6]; [18],40
same,"Plant response rating, Galium",[6]; [19],50
same,"Plant response rating, Galium",[6]; [20],65
same,"Plant response rating (scale 0 to 100), Galium","[6]; Preemergence, 125 g ai/ha",98
same,"Plant response rating, Galium",[6]; [21],98
same,"Plant response rating, Galium",[6]; [22],85
same,"Plant response rating, Galium",[6]; [23],100
same,"Foxtail, Giant plant response rating",[7]; [17],0
same,"Foxtail, Giant plant response rating",[7]; [18],5
same,"Plant response rating, Foxtail, Giant",[7]; [19],5
same,"Plant response rating, Foxtail, Giant",[7]; [20],10
same,"Plant response rating (scale 0 to 100), Foxtail, Giant","[7]; Preemergence, 125 g ai/ha",95
same,"Plant response rating, Foxtail, Giant",[7]; [21],0
same,"Plant response rating, Foxtail, Giant",[7]; [22],5
same,"Plant response rating, Foxtail, Giant",[7]; [23],40
same,"Crabgrass, Large plant response rating",[8]; [17],5
same,"Crabgrass, Large plant response rating",[8]; [18],5
same,"Plant response rating, Crabgrass, Large",[8]; [19],5
same,"Plant response rating, Crabgrass, Large",[8]; [20],5
same,"Plant response rating (scale 0 to 100), Crabgrass, Large","[8]; Preemergence, 125 g ai/ha",100
same,"Plant response rating, Crabgrass, Large",[8]; [21],5
same,"Plant response rating, Crabgrass, Large",[8]; [22],55
same,"Plant response rating, Crabgrass, Large",[8]; [23],100
same,Oilseed Rape plant response rating,[9]; [17],60
same,Oilseed Rape plant response rating,[9]; [18],50
same,"Plant response rating, Oilseed Rape",[9]; [19],65
same,"Plant response rating, Oilseed Rape",[9]; [20],90
same,"Plant response rating (scale 0 to 100), Oilseed Rape","[9]; Preemergence, 125 g ai/ha",100
same,"Plant response rating, Oilseed Rape",[9]; [21],80
same,"Plant response rating, Oilseed Rape",[9]; [22],98
same,"Plant response rating, Oilseed Rape",[9]; [23],90
same,Pigweed plant response rating,[10]; [17],20
same,Pigweed plant response rating,[10]; [18],35
same,"Plant response rating, Pigweed",[10]; [19],55
same,"Plant response rating, Pigweed",[10]; [20],70
same,"Plant response rating (scale 0 to 100), Pigweed","[10]; Preemergence, 125 g ai/ha",100
same,"Plant response rating, Pigweed",[10]; [21],75
same,"Plant response rating, Pigweed",[10]; [22],100
same,"Plant response rating, Pigweed",[10]; [23],100
same,Ragweed plant response rating,[11]; [17],15
same,Ragweed plant response rating,[11]; [18],30
same,"Plant response rating, Ragweed",[11]; [19],40
same,"Plant response rating, Ragweed",[11]; [20],70
same,"Plant response rating (scale 0 to 100), Ragweed","[11]; Preemergence, 125 g ai/ha",90
same,"Plant response rating, Ragweed",[11]; [21],15
same,"Plant response rating, Ragweed",[11]; [22],55
same,"Plant response rating, Ragweed",[11]; [23],65
same,"Nutsedge, Yellow plant response rating",[12]; [17],0
same,"Nutsedge, Yellow plant response rating",[12]; [18],0
same,"Plant response rating, Nutsedge, Yellow",[12]; [19],0
same,"Plant response rating, Nutsedge, Yellow",[12]; [20],5
same,"Plant response rating (scale 0 to 100), Nutsedge, Yellow","[12]; Preemergence, 125 g ai/ha",5
same,"Plant response rating, Nutsedge, Yellow",[12]; [21],0
same,"Plant response rating, Nutsedge, Yellow",[12]; [22],0
same,"Plant response rating, Nutsedge, Yellow",[12]; [23],0
